Results on 21 compounds are retold here after ChEMBL document CHEMBL1127892, “(6-oxo-3-pyridazinyl)-benzimidazoles as potent angiotensin II receptor antagonists” (Bioorg Med Chem Lett, 1994).

Test [1] addresses T1, Type-1 angiotensin II receptor (Bos taurus, UniProt P25104).
T1 sequence (P25104 whole entry): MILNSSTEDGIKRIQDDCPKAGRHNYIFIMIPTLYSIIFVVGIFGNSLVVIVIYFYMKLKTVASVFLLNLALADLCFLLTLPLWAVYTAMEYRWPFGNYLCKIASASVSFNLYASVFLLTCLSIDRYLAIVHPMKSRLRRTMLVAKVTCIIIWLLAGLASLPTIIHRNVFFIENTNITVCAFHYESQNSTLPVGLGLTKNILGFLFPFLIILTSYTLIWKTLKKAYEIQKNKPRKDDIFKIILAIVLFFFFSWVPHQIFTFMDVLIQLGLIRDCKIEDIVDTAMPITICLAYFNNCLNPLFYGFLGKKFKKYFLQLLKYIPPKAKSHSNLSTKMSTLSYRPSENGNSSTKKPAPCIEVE
Kind of test: Concentration required for 50% inhibition of binding against Angiotensin II receptor, type 1 in bovine adrenal cortex. The test is classed as tissue-based.

In test [2] the target is T2, Angiotensin II receptor (AT-1) type-1 (Rattus norvegicus, UniProt P29089+P25095).
T2 sequence (P29089 whole entry): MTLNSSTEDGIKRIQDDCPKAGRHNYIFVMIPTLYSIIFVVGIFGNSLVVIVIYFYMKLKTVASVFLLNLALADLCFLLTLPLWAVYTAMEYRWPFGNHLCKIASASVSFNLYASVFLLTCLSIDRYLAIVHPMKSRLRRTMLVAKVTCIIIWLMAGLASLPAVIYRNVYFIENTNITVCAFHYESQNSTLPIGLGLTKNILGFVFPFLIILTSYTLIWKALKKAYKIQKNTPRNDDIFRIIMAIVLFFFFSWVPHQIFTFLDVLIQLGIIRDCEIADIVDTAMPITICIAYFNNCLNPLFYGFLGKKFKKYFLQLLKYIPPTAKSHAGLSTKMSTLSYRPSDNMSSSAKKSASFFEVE
T2 sequence (P25095 whole entry): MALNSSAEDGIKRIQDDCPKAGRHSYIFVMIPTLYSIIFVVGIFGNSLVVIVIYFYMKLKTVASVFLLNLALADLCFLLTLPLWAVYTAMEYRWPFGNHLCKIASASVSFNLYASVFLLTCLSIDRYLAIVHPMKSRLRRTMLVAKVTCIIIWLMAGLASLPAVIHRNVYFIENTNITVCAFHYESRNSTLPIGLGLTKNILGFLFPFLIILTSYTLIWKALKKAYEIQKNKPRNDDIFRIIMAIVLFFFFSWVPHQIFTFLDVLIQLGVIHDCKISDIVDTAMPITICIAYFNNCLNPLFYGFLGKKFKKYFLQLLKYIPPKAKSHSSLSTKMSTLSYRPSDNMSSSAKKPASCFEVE
Kind of test: Concentration required for 50% inhibition of binding against Angiotensin II receptor, type 1 in rat adrenal cortex. The test is classed as tissue-based.

The target of test [3] is T2, Angiotensin II receptor (AT-1) type-1. The test can be described thus: In vivo percent inhibition of Angiotensin II receptor, type 1 induced increase in diastolic blood pressure in pithed rat at 3 mg/kg i.d. Details: dose 3 mg/kg, route intraduodenal. The test is classed as functional, organism-based, Artery.
In test [4] the target is T3, Type-1 angiotensin II receptor (Oryctolagus cuniculus, UniProt P34976).
T3 sequence (P34976 whole entry): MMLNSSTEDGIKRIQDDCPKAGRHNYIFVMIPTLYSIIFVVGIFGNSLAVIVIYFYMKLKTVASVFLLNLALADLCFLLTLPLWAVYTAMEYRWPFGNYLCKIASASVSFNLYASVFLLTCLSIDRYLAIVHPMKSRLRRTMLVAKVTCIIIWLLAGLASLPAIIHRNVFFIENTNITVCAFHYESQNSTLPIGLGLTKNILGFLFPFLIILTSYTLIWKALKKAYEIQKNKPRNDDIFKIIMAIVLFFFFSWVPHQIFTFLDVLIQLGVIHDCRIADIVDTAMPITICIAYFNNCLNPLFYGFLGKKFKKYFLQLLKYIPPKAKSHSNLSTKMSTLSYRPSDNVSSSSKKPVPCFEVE
Kind of test: Inhibitory activity against Angiotensin II receptor, type 1 induced contractions in isolated rabbit aortic rings. The test is classed as functional.

In general, IC50 refers to the concentration at which inhibition is half-maximal. As a reminder, the Inhibition is how much of the control response was suppressed. A lower Inhibition goes with a response near the control.

Some results are limits rather than exact numbers.

As for `COc1ccc(-c2nc3cc(C4=NN(Cc5ccc(-c6ccccc6-c6nn[nH]n6)cc5)C(=O)CC4C)ccc3[nH]2)cc1` (stereo unspecified), the IC50 in test [1] is 54 µM. `COC(=O)c1ccccc1CN1N=C(c2ccc3nc(C4CC4)n(Cc4ccc(-c5ccccc5-c5nn[nH]n5)cc4)c3c2)C(C)CC1=O` (stereo unspecified) had a concentration for half-maximal inhibition (IC50) in test [2] of 6.5 nM. For `CC1CC(=O)NN=C1c1ccc2nc(C3CC3)n(Cc3ccc(-c4ccccc4-c4nn[nH]n4)cc3)c2c1` (stereo unspecified), the Inhibition in test [3] turned out to be 80%. Besides, the IC50 in test [4] is 2 nM; in test [2] it was 1.8 nM. `COc1ccc(-c2nc3ccc(C4=NNC(=O)CC4C)cc3[nH]2)cc1` (stereo unspecified) [PIMOBENDAN] displayed an IC50 in test [1] of 17 µM.

For `CCCc1nc2ccc(C3=NN(CC(=O)N(C)C)C(=O)CC3)cc2n1Cc1ccc(-c2ccccc2-c2nn[n-]n2)cc1.[K+]`, the 50% inhibitory concentration (IC50) in test [4] was 2 nM; in test [2], 1.7 nM. The compound `COc1ccc(-c2nc3cc(C4=NNC(=O)CC4C)ccc3n2Cc2ccc(-c3ccccc3-c3nn[nH]n3)cc2)cc1` (stereo unspecified) yielded an IC50 in test [1] of 5.5 µM.

`CCCCc1nc2ccc(-c3nnc(O)cc3C)cc2n1Cc1ccc(-c2ccccc2-c2nn[nH]n2)cc1` registered a concentration for half-maximal inhibition (IC50) in test [2] of 4.4 nM. The same measure, in the same setting: next, `CCCCc1nc2ccc(C3=NNC(=O)CC3)cc2n1Cc1ccc(-c2ccccc2-c2nn[nH]n2)cc1`: 5 nM. As for `CN(C)C(=O)CN1N=C(c2ccc3nc(C4CC4)n(Cc4ccc(-c5ccccc5-c5nn[n-]n5)cc4)c3c2)CCC1=O.[K+]`, the IC50 stood at 2 nM in test [4] and 3.6 nM in test [2]. Take `CC1(C)CC(=O)NN=C1c1ccc2nc(C3CC3)n(Cc3ccc(-c4ccccc4-c4nn[n-]n4)cc3)c2c1.[K+]`: in test [3], the Inhibition stood at 80%. In addition, the half-inhibitory concentration (IC50) stood at 4 nM in test [4] and 3.4 nM in test [2]. The compound `CCCCc1nc2ccc(C3=NN(CC(=O)N(C)C)C(=O)CC3C)cc2n1Cc1ccc(-c2ccccc2-c2nn[n-]n2)cc1.[K+]` (stereo unspecified) came in with a concentration for half-maximal inhibition (IC50) in test [2] of 2.8 nM. On the same count and under the same terms, next, `Cc1cc(=O)n(CC(=O)N(C)C)nc1-c1ccc2nc(C3CC3)n(Cc3ccc(-c4ccccc4-c4nn[n-]n4)cc3)c2c1.[K+]`: 3.6 nM. In test [1], `CCCCc1nc2cc(C3=NNC(=O)CC3C)ccc2n1Cc1ccc(-c2ccccc2-c2nnn[nH]2)cc1` (stereo unspecified) had a half-maximal inhibitory concentration (IC50) of 0.161 µM. `Cc1cc(O)nnc1-c1ccc2nc(C3CC3)n(Cc3ccc(-c4ccccc4-c4nn[nH]n4)cc3)c2c1` displayed an Inhibition in test [3] of 40%. Also, the 50% inhibitory concentration (IC50) in test [4] amounted to 3 nM; in test [2] it was 1.8 nM.

In the case of `CCCCc1nc2ccc(C3=NNC(=O)CC3C)cc2n1Cc1ccc(-c2ccccc2-c2nn[nH]n2)cc1` (stereo unspecified), the results for the 50% inhibitory concentration (IC50) in test [1] and in test [2] were 0.022 µM and 6.3 nM, respectively. `CN(C)C(=O)CN1N=C(c2ccc3nc(C4CC4)n(Cc4ccc(-c5ccccc5-c5nn[n-]n5)cc4)c3c2)C(C)(C)CC1=O.[K+]`: the figures for the half-maximal inhibitory concentration (IC50) in test [4] and in test [2] were 2 nM and 4.7 nM, respectively. For `CCc1nc2ccc(C3=NN(CC(=O)N(C)C)C(=O)CC3)cc2n1Cc1ccc(-c2ccccc2-c2nn[n-]n2)cc1.[K+]`, in that order: 3 nM and 1.6 nM. As to `CCCCc1nc2ccc(C3=NNC(=O)CC3C)cc2[nH]1` (stereo unspecified), the IC50 in test [1] was over 1000 µM. `CC1CC(=O)N(CC(=O)N(C)C)N=C1c1ccc2nc(C3CC3)n(Cc3ccc(-c4ccccc4-c4nn[n-]n4)cc3)c2c1.[K+]` (stereo unspecified) had an Inhibition in test [3] of 56%. The results for the IC50 in test [4] and in test [2] were 2 nM and 2.9 nM, respectively.

`CCCCc1nc2cc(C3=NN(Cc4ccc(-c5ccccc5-c5nn[nH]n5)cc4)C(=O)CC3C)ccc2[nH]1` (stereo unspecified) showed an IC50 in test [1] of 7 µM. For the compound `COC(=O)CN1N=C(c2ccc3nc(C4CC4)n(Cc4ccc(-c5ccccc5-c5nn[nH]n5)cc4)c3c2)C(C)CC1=O` (stereo unspecified), the Inhibition in test [3] came out at 57%. Also, the IC50 in test [4] was 4 nM; in test [2], 3.2 nM.
